Values joined by “and” are separate entries in the source; they are usually repeats but may differ in a detail not shown here. Equal values may be shown once. Inconclusive results and toxic doses are left out.

In the assay the test system is C3H/He mice, Gardner lymphosarcoma 6C3HED ip, survival T/C. As to the kind of experiment: NCI In Vivo Anticancer Drug Screen. Data for tumor model Lymphosarcoma Gardner 6C3HED (intraperitoneal) in C3H/He mice. The note with it: higher = longer survival. As for the experimental part: The antitumor activity of compounds was measured in mice bearing transplantable tumors. Survival or tumor size were measured and the results are expressed as the measurement made in the treated group (T) divided by the measurement made in the vehicle treated control group (C). The tumor model used in this assay is Lymphosarcoma Gardner 6C3HED (intraperitoneal) in C3H/He mice

[1] abbreviates: endpoint: survival time, mean or median, dose: 0.5 mg/kg/injection, schedule: Q01DX010 (ip), vehicle: saline.
The mark [2] stands for this setting: endpoint: survival time, mean or median, dose: 250.0 micrograms/kg/injection, schedule: Q01DX010 (ip), vehicle: saline.
[3] abbreviates: endpoint: survival time, mean or median, dose: 2.5 mg/kg/injection, schedule: Q01DX010 (ip), vehicle: saline.
Where [4] appears, read: endpoint: survival time, mean or median, dose: 5.0 mg/kg/injection, schedule: Q01DX010 (ip), vehicle: saline.
[5] abbreviates: endpoint: survival time, mean or median, dose: 50.0 mg/kg/injection, schedule: Q01DX010 (ip), vehicle: saline.
[6] abbreviates: endpoint: survival time, mean or median, dose: 125.0 micrograms/kg/injection, schedule: Q01DX010 (ip), vehicle: saline.
[7] abbreviates: endpoint: survival time, mean or median, dose: 4.0 mg/kg/injection, schedule: Q01DX010 (ip), vehicle: saline.
Where [8] appears, read: endpoint: survival time, mean or median, dose: 12.5 mg/kg/injection, schedule: Q01DX010 (ip), vehicle: saline.
Setting [9] is: endpoint: survival time, mean or median, dose: 25.0 mg/kg/injection, schedule: Q01DX010 (ip), vehicle: saline.
The mark [10] stands for this setting: endpoint: survival time, mean or median, dose: 100.0 mg/kg/injection, schedule: Q01DX010 (ip), vehicle: saline.
Setting [11] is: endpoint: survival time, mean or median, dose: 1.25 mg/kg/injection, schedule: Q01DX010 (ip), vehicle: saline.

Regarding `Nc1nc(F)nc2c1ncn2C1OC(CO)C(O)C1O` (centres undefined), the T/C is 87 % of control under setting [1]; 87 % of control (endpoint: survival time, mean or median, dose: 1.0 mg/kg/injection, schedule: Q01DX010 (ip), vehicle: saline); 86 % of control under setting [2].

For `N=C(N)SCc1c2ccccc2c(CSC(=N)N)c2ccccc12`, the T/C under setting [3] was 300 % of control; the T/C under setting [4] was 300 % of control; the T/C (endpoint: survival time, mean or median, dose: 10.0 mg/kg/injection, schedule: Q01DX010 (ip), vehicle: saline) is 300 % of control; the T/C (endpoint: survival time, mean or median, dose: 20.0 mg/kg/injection, schedule: Q01DX010 (ip), vehicle: saline) was 300 % of control; the T/C (endpoint: survival time, mean or median, dose: 40.0 mg/kg/injection, schedule: Q01DX010 (ip), vehicle: saline) is 192 % of control.

For `CS(=O)(=O)OCCC(=O)N1CCN(C(=O)CCOS(C)(=O)=O)CC1`, the T/C under setting [5] was 207 % of control and 267 % of control.

Take `CS(=O)(=O)OCCN(CCOS(C)(=O)=O)c1ccc(N=O)cc1`: the T/C by setting is: (endpoint: survival time, mean or median, dose: 62.5 micrograms/kg/injection, schedule: Q01DX010 (ip), vehicle: saline) 107 % of control; under setting [6], 111 % of control; under setting [2], 111 % of control; (endpoint: survival time, mean or median, dose: 500.0 micrograms/kg/injection, schedule: Q01DX010 (ip), vehicle: saline) 92 % of control.

Take `CC(N)(CC(=O)O)C(=O)O` (centres undefined): the T/C runs as follows: (endpoint: median survival time, dose: 3.12 mg/kg/injection, schedule: Q01DX009 (ip), vehicle: saline) 90 % of control and 98 % of control; (endpoint: median survival time, dose: 6.25 mg/kg/injection, schedule: Q01DX009 (ip), vehicle: saline) 96 % of control; (endpoint: median survival time, dose: 12.5 mg/kg/injection, schedule: Q01DX009 (ip), vehicle: saline) 92 % of control and 99 % of control; (endpoint: median survival time, dose: 25.0 mg/kg/injection, schedule: Q01DX009 (ip), vehicle: saline) 86 % of control; (endpoint: median survival time, dose: 50.0 mg/kg/injection, schedule: Q01DX009 (ip), vehicle: saline) 101 % of control.

As for `N[C@@H](Cc1ccc(N(CCCl)CCCl)cc1)C(=O)O`, the T/C was 106 % of control under setting [1]; 150 % of control (endpoint: survival time, mean or median, dose: 2.0 mg/kg/injection, schedule: Q01DX010 (ip), vehicle: saline); 93 % of control under setting [7].

On to `CC(CCC(C)OS(C)(=O)=O)OS(C)(=O)=O` (centres undefined), for which the T/C is, setting by setting: under setting [7], 86 % of control; (endpoint: survival time, mean or median, dose: 8.0 mg/kg/injection, schedule: Q01DX010 (ip), vehicle: saline) 100 % of control.

For the molecule `NC(CC(=O)NO)C(=O)O` (centres undefined), the T/C (endpoint: median survival time, dose: 100.0 mg/kg/injection, schedule: Q01DX005 (ip), vehicle: water) was 96 % of control; the T/C (endpoint: median survival time, dose: 200.0 mg/kg/injection, schedule: Q01DX005 (ip), vehicle: water) was 107 % of control; the T/C (endpoint: median survival time, dose: 400.0 mg/kg/injection, schedule: Q01DX005 (ip), vehicle: water) is 115 % of control; the T/C (endpoint: median survival time, dose: 800.0 mg/kg/injection, schedule: Q01DX005 (ip), vehicle: water) was 111 % of control.

On to `COc1cc(-c2ccc(Nc3ccccc3C(=O)O)c(OC)c2)ccc1Nc1ccccc1C(=O)O`, for which the T/C is, setting by setting: under setting [8], 117 % of control; under setting [9], 107 % of control and 117 % of control; under setting [5], 117 % of control and 118 % of control; under setting [10], 96 % of control.

In the case of `Nc1nc(N)c2nc(CNc3ccc(C(=O)NC(CCC(=O)O)C(=O)O)cc3)cnc2n1` (centres undefined), the T/C is, setting by setting: (endpoint: survival time, mean or median, dose: 0.03 mg/kg/injection, schedule: Q01DX010 (ip), vehicle: other) 95 % of control and 100 % of control; (endpoint: survival time, mean or median, dose: 0.05 mg/kg/injection, schedule: Q01DX010 (ip), vehicle: other) 100 % of control and 110 % of control; (endpoint: survival time, mean or median, dose: 0.1 mg/kg/injection, schedule: Q01DX010 (ip), vehicle: other) 100 % of control and 110 % of control.

With `Cc1cn(C2OC(CO)C(O)C2O)c(=O)[nH]c1=O` (centres undefined), the T/C (endpoint: survival time, mean or median, dose: 62.5 mg/kg/injection, schedule: Q01DX010 (ip), vehicle: saline) is 100 % of control; the T/C (endpoint: survival time, mean or median, dose: 125.0 mg/kg/injection, schedule: Q01DX010 (ip), vehicle: saline) is 96 % of control and 100 % of control; the T/C (endpoint: survival time, mean or median, dose: 250.0 mg/kg/injection, schedule: Q01DX010 (ip), vehicle: saline) is 100 % of control; the T/C (endpoint: survival time, mean or median, dose: 500.0 mg/kg/injection, schedule: Q01DX010 (ip), vehicle: saline) is 103 % of control.

Take `C[C@@H]1C[C@H]2CC[C@H](O2)[C@H](C)C(=O)O[C@@H](C)C[C@@H]2CC[C@@H](O2)[C@@H](C)C(=O)O[C@H](C)C[C@H]2CC[C@H](O2)[C@H](C)C(=O)O[C@@H](C)C[C@@H]2CC[C@@H](O2)[C@@H](C)C(=O)O1`: the T/C by setting is: under setting [8], 100 % of control; under setting [9], 92 % of control; under setting [5], 96 % of control.

For `NCC(=O)O`, the T/C (endpoint: median survival time, dose: 187.5 mg/kg/injection, schedule: Q04HX020 (ip), vehicle: saline) was 88 % of control; the T/C (endpoint: median survival time, dose: 187.5 mg/kg/injection, schedule: Q06HX020 (ip), vehicle: saline) was 89 % of control; the T/C (endpoint: median survival time, dose: 375.0 mg/kg/injection, schedule: Q04HX020 (ip), vehicle: saline) is 88 % of control; the T/C (endpoint: median survival time, dose: 375.0 mg/kg/injection, schedule: Q06HX020 (ip), vehicle: saline) is 89 % of control; the T/C (endpoint: median survival time, dose: 750.0 mg/kg/injection, schedule: Q04HX020 (ip), vehicle: saline) is 92 % of control; the T/C (endpoint: median survival time, dose: 750.0 mg/kg/injection, schedule: Q06HX020 (ip), vehicle: saline) was 93 % of control. In addition, under “endpoint: median survival time, dose: 1500.0 mg/kg/injection, schedule: Q06HX020 (ip), vehicle: saline”, the T/C is 69 % of control.

For the molecule `CS(=O)(=O)OCC(O)C(O)C(O)C(O)COS(C)(=O)=O` (centres undefined), the T/C under setting [9] was 94 % of control; the T/C under setting [5] is 100 % of control; the T/C under setting [10] was 94 % of control and 100 % of control; the T/C (endpoint: survival time, mean or median, dose: 200.0 mg/kg/injection, schedule: Q01DX010 (ip), vehicle: saline) is 100 % of control and 105 % of control; the T/C (endpoint: survival time, mean or median, dose: 400.0 mg/kg/injection, schedule: Q01DX010 (ip), vehicle: saline) was 110 % of control.

For the molecule `COC1C(OC(=O)/C=C/C=C/C=C/C=C/C(=O)O)CCC2(CO2)C1C1(C)OC1CC=C(C)C` (centres undefined), the T/C is, setting by setting: under setting [8], 102 % of control; under setting [9], 110 % of control; under setting [5], 110 % of control; under setting [10], 100 % of control.

Consider `N#Cc1cn(C2OC(CO)C(O)C2O)c2ncnc(N)c12` (centres undefined), for which the T/C was 96 % of control (endpoint: survival time, mean or median, dose: 31.0 micrograms/kg/injection, schedule: Q01DX010 (ip), vehicle: saline) and 96 % of control under setting [6].

For `N#[N+]c1cnc([O-])[nH]c1=O`, the T/C was 123 % of control under setting [11], 150 % of control under setting [3] and 106 % of control under setting [4].

Take `[N-]=[N+]=CC(=O)CCC(N)C(=O)O` (centres undefined): the T/C is 100 % of control and 105 % of control (endpoint: survival time, mean or median, dose: 0.03 mg/kg/injection, schedule: Q01DX010 (ip), vehicle: saline); 100 % of control and 118 % of control (endpoint: survival time, mean or median, dose: 0.05 mg/kg/injection, schedule: Q01DX010 (ip), vehicle: saline); 118 % of control and 120 % of control (endpoint: survival time, mean or median, dose: 0.1 mg/kg/injection, schedule: Q01DX010 (ip), vehicle: saline).

For the molecule `Nc1ncnc2c1ncn2C1OC(CO)C(O)C1O` (centres undefined), the T/C runs as follows: (endpoint: median survival time, dose: 12.5 mg/kg/injection, schedule: Q01DX003 (ip), vehicle: saline) 90 % of control; (endpoint: median survival time, dose: 12.5 mg/kg/injection, schedule: Q11DX018 (ip), vehicle: saline with Tween-80) 96 % of control; (endpoint: median survival time, dose: 12.5 mg/kg/injection, schedule: Q12HX006 (ip), vehicle: saline) 108 % of control; (endpoint: median survival time, dose: 25.0 mg/kg/injection, schedule: Q01DX003 (ip), vehicle: saline) 95 % of control; (endpoint: median survival time, dose: 25.0 mg/kg/injection, schedule: Q12HX006 (ip), vehicle: saline) 112 % of control; (endpoint: median survival time, dose: 50.0 mg/kg/injection, schedule: Q01DX003 (ip), vehicle: saline) 100 % of control. Also, the T/C (endpoint: median survival time, dose: 50.0 mg/kg/injection, schedule: Q12HX006 (ip), vehicle: saline) was 120 % of control.

Take `NC(Cc1ccc(N(CCCl)CCCl)cc1)C(=O)O` (centres undefined): the T/C under setting [11] was 107 % of control; the T/C under setting [4] is 89 % of control and 119 % of control.

Source of the values: PubChem BioAssay AID230 (DTP/NCI, 2004).
